For data set [1], the target named is CYP3A4 (Homo sapiens (Human), UniProt P08684). Briefly: CYP MUX (3A4) RI. The format is in vitro ADME. The settings on record: human liver microsomes, substrate testosterone, 37° C. 10 min. An excerpt:
This assay measures inhibition of CYP3A4 by a compound. Cytochromes P450 (CYPs) constitute a superfamily of heme-containing enzymes that recognize and metabolize a large number structurally diverse xenobiotics in the human body. CYP3A4 constitutes the largest portion of CYP enzymes in the liver that accounts for the metabolism of almost 50% of all drugs. This assay is used to evaluate the potential of a compound for developing DDIs. (Clarke, S. E.; Jones B. C. Drug-Drug Interactions, New York: Marcel Dekker; 2002. pp. 53-88).
Compound dilutions and assay-ready plates were prepared on a TTP Labtech mosquito® HTS. Assay conduction was fully automated on a customized Screening Platform from Caliper (now PerkinElmer) containing a Mitsubishi robotic plate handler, Liconic incubators, a Caliper Zephyr® liquid handling workstation equipped with temperature-controlled deck positions, a Biotek MultiFlo™ dispenser and an Agilent PlateLoc heat sealer. Assay plates were Corning Costar® 384 well PP plates. High throughput mass spectrometric readout was performed on a RapidFire® 300 system coupled to an AB Sciex API 4000™ triple quadrupole device. CYP isoform 3A4 was incubated in a separate reaction of 50 μL final volume. 25 μL of HLM (human liver microsomes, BD UltraPool™ 150, 0.25 mg/mL final concentration) and the respective substrate, testosterone (75 μM) for 3A4, in potassium phosphate buffer (100 mM, pH=7.4) were added to 250 nL of stamped compound solution (10 mM in DMSO). The reactions were started upon addition of 25 μL of a co-factor solution containing magnesium chloride (3.3 mM), glucose-6-phosphate (3.3 mM), glucose-6-phosphate dehydrogenase (1.4 units) and NADP (1 mM) in potassium phosphate buffer (100 mM, pH=7.4) and incubated on deck at 37° C. for 10 min. 8 μL of each reaction were transferred to the same readout plated filled with 48 μL of stop solution containing internal standards (concentration in final readout plate), 6-hydroxytestosterone-D7 (0.5 μM), 4′-hydroxydiclofenac-D4 (0.2 and dextrorphan-D3 (0.01 in acetonitrile with 0.5% formic acid. After heat sealing, plates were stored at −20° C. for at least 30 min, centrifuged and subjected directly to RapidFire®/MS analysis.
Background: Liver microsomes are vesicles of endoplasmic reticulum, rich in cytochrome P450 enzymes.

Data set [2] concerns the target PAR-1 receptor (Homo sapiens (Human), UniProt P25116). Put plainly: PAR-1 FLIPR Assay. The settings on record: HEK 293 cells, calcium signal after PAR-1 selective receptor-activating peptide at EC80. The format is cell-based. The procedure:
This assay measures the potency of the inventive compounds as PAR-1 receptor antagonists.
Frozen HEK 293 Cells were plated in 384-well PDL coated plates at 12000 cells/well in 50 uL of DMEM media containing 10% FBS, pen/strep/L-Glutamine and non-essential amino acids, incubated overnight at 37° C./5% CO2. Media was then removed from the cells, incubated with 33 uL of Calcium-5 dye in assay buffer (Hank's buffer containing 20 mM HEPES, 0.04% Chaps and 2.5 mM Probenecid) for 60 minutes at 37° C. 2 uL of varying concentrations of compound in 40% DMSO in assay buffer (final DMSO concentration is […]) were then added to the cells and incubated at 25° C. for 30 minutes. The plates were added to the FLIPR Tetra®, the device added 5 μL of PAR-1 selective receptor-activating peptide (sequence Ala-parafluoroPhe-Arg-Cha-Cit-Try-NH2, prepared in water) at a concentration equal to the effective concentration that achieved 80% activation of signaling on the day of the experiment. The range of peptide was from 1.5-3 μM. The final volume is 40 uL/well, with 2% DMSO. The FLIPR was read at an excitation wavelength of 480 nm and an emission wavelength of 535 nm, and performed 60 scans over a 1-2 min reading time. The data were analyzed by taking the peak signal over a portion of the range of the 60 scans and dividing this signal by the minimum signal for that same range. The data were expressed as percent inhibition of the maximum divided by the minimum signal achieved at 80% activation produced by the PAR1 activating peptide on the test day. The compounds of Examples 1-13 were tested in the assay described above and the data collected for these compounds is provided.

CYP3A4, sequence (P08684 whole entry): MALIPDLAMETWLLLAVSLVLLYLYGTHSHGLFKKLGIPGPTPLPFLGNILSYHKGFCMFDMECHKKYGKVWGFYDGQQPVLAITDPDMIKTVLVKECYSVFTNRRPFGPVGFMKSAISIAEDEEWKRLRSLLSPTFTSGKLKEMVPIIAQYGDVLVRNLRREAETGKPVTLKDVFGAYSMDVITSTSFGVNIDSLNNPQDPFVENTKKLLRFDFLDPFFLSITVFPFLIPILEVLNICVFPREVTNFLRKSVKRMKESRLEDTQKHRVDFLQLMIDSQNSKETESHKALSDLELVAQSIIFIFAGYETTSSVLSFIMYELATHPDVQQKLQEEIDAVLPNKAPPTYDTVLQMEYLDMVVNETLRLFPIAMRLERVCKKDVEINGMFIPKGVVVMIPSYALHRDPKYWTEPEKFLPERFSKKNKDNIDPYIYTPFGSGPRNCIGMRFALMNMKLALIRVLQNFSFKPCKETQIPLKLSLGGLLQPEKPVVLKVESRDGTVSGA
PAR-1 receptor, sequence (P25116 22-425): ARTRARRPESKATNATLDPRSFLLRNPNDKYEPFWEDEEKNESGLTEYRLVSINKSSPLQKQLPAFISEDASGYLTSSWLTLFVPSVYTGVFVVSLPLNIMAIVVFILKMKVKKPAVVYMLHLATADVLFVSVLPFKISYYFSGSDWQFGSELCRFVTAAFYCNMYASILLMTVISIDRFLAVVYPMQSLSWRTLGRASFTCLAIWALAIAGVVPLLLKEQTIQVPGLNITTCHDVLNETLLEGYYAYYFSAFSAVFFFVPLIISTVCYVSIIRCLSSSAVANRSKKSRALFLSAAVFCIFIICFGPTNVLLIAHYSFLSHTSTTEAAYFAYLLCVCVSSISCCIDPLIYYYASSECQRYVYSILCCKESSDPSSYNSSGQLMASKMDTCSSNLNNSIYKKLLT

Regarding `C[C@H]1OC(=O)[C@]2(c3n[nH]c(=O)o3)CC(F)(F)[C@@H](C)[C@H](/C=C/c3ccc(-c4ccccc4C#N)cn3)[C@H]12` [Example 1, 2-(6-((E)-2-((3R,3aS,4R,5S,7aR)-6,6-difluoro-3,5-dimethyl-1-oxo-7a-(5-oxo-4,5-dihydro-1,3,4-oxadiazol-2-yl)octahydroisobenzofuran-4-yl)vinyl)pyridin-3-yl)benzonitrile], the half-inhibitory concentration (IC50) (usually the concentration that gives 50% inhibition) stood at 21.8 µM in data set [1] and 0.00422 µM in data set [2]. On the same counts, the results for `Cc1cccc(-c2ccc(/C=C/[C@@H]3[C@@H]4[C@@H](C)OC(=O)[C@]4(c4n[nH]c(=O)o4)CC(F)(F)[C@H]3C)nc2)c1C#N` [Example 2, 2-(6-((E)-2-((3R,3aS,4R,5S,7aR)-6,6-difluoro-3,5-dimethyl-1-oxo-7a-(5-oxo-4,5-dihydro-1,3,4-oxadiazol-2-yl)octahydroisobenzofuran-4-yl)vinyl)pyridin-3-yl)-6-methylbenzonitrile] are 22.8 µM and 0.00134 µM.

As to `Cc1cccc(-c2ccc(/C=C/[C@@H]3[C@@H]4[C@@H](C)OC(=O)[C@]4(c4nnc(N)o4)CC(F)(F)[C@H]3C)nc2)c1C#N` [Example 3, 2-(6-((E)-2-((3R,3aS,4R,5S,7aR)-7a-(5-amino-1,3,4-oxadiazol-2-yl)-6,6-difluoro-3,5-dimethyl-1-oxooctahydroisobenzofuran-4-yl)vinyl)pyridin-3-yl)-6-methylbenzonitrile], the IC50 came to 10.4 µM in data set [1] and 0.00122 µM in data set [2]. The like results for `C[C@H]1OC(=O)[C@]2(c3nnc(N)o3)CC(F)(F)[C@@H](C)[C@H](/C=C/c3ccc(-c4ccccc4C#N)cn3)[C@H]12` [Example 4, 2-(6-((E)-2-((3R,3aS,4R,5S,7aR)-7a-(5-amino-1,3,4-oxadiazol-2-yl)-6,6-difluoro-3,5-dimethyl-1-oxooctahydroisobenzofuran-4-yl)vinyl)pyridin-3-yl)benzonitrile] were, in that order, 9.9 µM and 0.00308 µM.

Regarding `Cc1nnc([C@@]23CC(F)(F)[C@@H](C)[C@H](/C=C/c4ccc(-c5cccc(C)c5C#N)cn4)[C@@H]2[C@@H](C)OC3=O)o1` [Example 5, 2-(6-((E)-2-((3R,3aS,4R,5S,7aR)-6,6-difluoro-3,5-dimethyl-7a-(5-methyl-1,3,4-oxadiazol-2-yl)-1-oxooctahydroisobenzofuran-4-yl)vinyl)pyridin-3-yl)-6-methylbenzonitrile], the concentration for half-maximal inhibition (IC50) came out at 16.9 µM in data set [1] and 0.00245 µM in data set [2]. Regarding `Cc1cccc(-c2ccc(/C=C/[C@@H]3[C@@H]4[C@@H](C)OC(=O)[C@]4(c4nnc(C5CC5)o4)CC(F)(F)[C@H]3C)nc2)c1C#N` [Example 6, 2-(6-((E)-2-((3R,3aS,4R,5S,7aR)-7a-(5-cyclopropyl-1,3,4-oxadiazol-2-yl)-6,6-difluoro-3,5-dimethyl-1-oxooctahydroisobenzofuran-4-yl)vinyl)pyridin-3-yl)-6-methylbenzonitrile], the IC50 in data set [2] stood at 0.00207 µM.

Turning to `Cc1cccc(-c2ccc(/C=C/[C@@H]3[C@@H]4[C@@H](C)OC(=O)[C@]4(c4nnc(-c5ccccc5)o4)CC(F)(F)[C@H]3C)nc2)c1C#N` [Example 7], the IC50 in data set [2] was determined as 0.00501 µM.

For the molecule `C[C@H]1OC(=O)[C@]2(c3n[nH]c(=O)o3)CC(F)(F)[C@@H](C)[C@H](/C=C/c3ccc(-c4cccc(F)c4)cn3)[C@H]12` [Example 8, 5-((1R,3aR,6S,7R,7aS)-5,5-difluoro-7-((E)-2-(5-(3-fluorophenyl)pyridin-2-yl)vinyl)-1,6-dimethyl-3-oxooctahydroisobenzofuran-3a-yl)-1,3,4-oxadiazol-2(3H)-one], the IC50 in data set [2] is 0.0287 µM. For `C[C@H]1OC(=O)[C@]2(c3cc(C(C)(C)C)[nH]n3)CC(F)(F)[C@@H](C)[C@H](/C=C/c3ccc(-c4ccccc4C#N)cn3)[C@H]12` [Example 9, 2-(6-((E)-2-((3R,3aS,4R,5S,7aR)-7a-(5-(tert-butyl)-1H-pyrazol-3-yl)-6,6-difluoro-3,5-dimethyl-1-oxooctahydroisobenzofuran-4-yl)vinyl)pyridin-3-yl)benzonitrile], in data set [2], the IC50 came out at 0.0145 µM. For the molecule `C[C@H]1OC(=O)[C@]2(c3cc(C(C)(C)C)n(C)n3)CC(F)(F)[C@@H](C)[C@H](/C=C/c3ccc(-c4ccccc4C#N)cn3)[C@H]12` [Example 10, 2-(6-((E)-2-((3R,3aS,4R,5S,7aR)-7a-(5-(tert-butyl)-1-methyl-1H-pyrazol-3-yl)-6,6-difluoro-3,5-dimethyl-1-oxooctahydroisobenzofuran-4-yl)vinyl)pyridin-3-yl)benzonitrile], the figures for the IC50 in data set [1] and in data set [2] were at least 50 µM and 0.0253 µM, respectively. The like results for `Cc1cccc(-c2ccc(/C=C/[C@@H]3[C@@H]4[C@@H](C)OC(=O)[C@]4(c4cc(C)n(C)n4)CC(F)(F)[C@H]3C)nc2)c1C#N` [Example 11] were, in that order, 17.6 µM and 0.0063 µM.

With `C[C@H]1OC(=O)[C@]2(c3cc[nH]n3)CC(F)(F)[C@@H](C)[C@H](/C=C/c3ccc(-c4ccccc4C#N)cn3)[C@H]12` [Example 12, 2-(6-((E)-2-((3R,3aS,4R,5S,7aR)-6,6-difluoro-3,5-dimethyl-1-oxo-7a-(1H-pyrazol-3-yl)octa hydroisobenzofuran-4-yl)vinyl)pyridin-3-yl)benzonitrile], the IC50 in data set [1] was found to be 2.4 µM; in data set [2], 0.00099 µM. Consider `C[C@H]1OC(=O)[C@]2(c3cc[nH]n3)CC(F)(F)[C@@H](C)[C@H](/C=C/c3ccc(-c4cccnc4C#N)cn3)[C@H]12` [Example 13, 6′-((E)-2-((3R,3aS,4R,5S,7aR)-6,6-difluoro-3,5-dimethyl-1-oxo-7a-(1H-pyrazol-3-yl)octahydroisobenzofuran-4-yl)vinyl)-[3,3′-bipyridine]-2-carbonitrile], for which the IC50 came to 8.8 µM in data set [1] and 0.0062 µM in data set [2].

The values above are taken from US10322140B2, “Preparation and use of 7a-heterocycle substituted-6,6-difluoro bicyclic himbacine derivatives as PAR-1 receptor antagonists” (Merck Sharp & Dohme Corp., priority 2013, dated 2019).
